Experiments:
AIMP2-DX2 [1] = test: AIMP2-DX2 luciferase assay in pGL-DX-2 transfected A549 lung cancer cells; conditions: A549 transfected with pGL-DX-2, cultured 24 hours, 4 hours treatment, lower = more inhibition, N.C (DMSO) 20089
Description: (§1) After 24 hours in culture, transfected lung cancer cells were treated with the compounds of the library. 4 hours later, luciferase activity was measured with a luminometer using a luciferase assay kit according to a manufacturer protocol (Promega, US).
(§2) Lung cancer cell lines A549 and H460 were transfected with pGL-DX-2, cultured for 24 hours, and treated with the newly synthesized compounds. After further culturing for 4 hours, luciferase activity was measured.

AIMP2-DX2 [2] = test: AIMP2-DX2 luciferase assay in pGL2-DX2 transfected H460 lung cancer cells; conditions: H460 transfected with pGL-DX-2, cultured 24 hours, 4 hours treatment, lower = more inhibition, N.C (DMSO) 8627
Description: as §1, §2

In the case of `CCOC(=O)C(C)C(=O)Nc1cccc(C)n1` (stereo not shown) [No. 7, ethyl 2-methyl-3-[(6-methylpyridin-2-yl)amino]-3-oxopropanoate], the “AIMP2-DX2 Activity in A549 cells” value (AIMP2-DX2 [1]) is reported as 6568 and the “AIMP2-DX2 Activity in H460 cells” value (AIMP2-DX2 [2]) is reported as 6082.
In the case of `CCOC(=O)CC(=O)Nc1nc(C)ccc1C` [No. 4, ethyl 3-[(3,6-dimethylpyridin-2-yl)amino]-3-oxopropanoate], the “AIMP2-DX2 Activity in A549 cells” value (AIMP2-DX2 [1]) is reported as 18252 and the “AIMP2-DX2 Activity in H460 cells” value (AIMP2-DX2 [2]) is reported as 4914.
`CCOC(=O)C(C)C(=O)Nc1ccc(Cl)cn1` (stereo not shown) [No. 1, ethyl 3-[(5-chloropyridin-2-yl)amino]-2-methyl-3-oxopropanoate] was tested, and the “AIMP2-DX2 Activity in A549 cells” value (AIMP2-DX2 [1]) was 5295 and the “AIMP2-DX2 Activity in H460 cells” value (AIMP2-DX2 [2]) was 7668.
With `CCOC(=O)CC(=O)Nc1ccc(Cl)cn1` [No. 8, ethyl 3-[(5-chloropyridin-2-yl)amino]-3-oxopropanoate] the “AIMP2-DX2 Activity in A549 cells” value (AIMP2-DX2 [1]) was 8045 and the “AIMP2-DX2 Activity in H460 cells” value (AIMP2-DX2 [2]) was 6348.
For `CCOC(=O)CC(=O)Nc1cc(O)ccn1` [No. 5, ethyl 3-[(4-hydroxypyridin-2-yl)amino]-3-oxopropanoate], the “AIMP2-DX2 Activity in A549 cells” value (AIMP2-DX2 [1]) was 5721 and the “AIMP2-DX2 Activity in H460 cells” value (AIMP2-DX2 [2]) was 4984.
With `CCOC(=O)CC(=O)Nc1cccc(C)n1` [No. 2, ethyl 3-[(6-methylpyridin-2-yl)amino]-3-oxopropanoate] the “AIMP2-DX2 Activity in A549 cells” value (AIMP2-DX2 [1]) was 8070 and the “AIMP2-DX2 Activity in H460 cells” value (AIMP2-DX2 [2]) was 7740.
With `CCOC(=O)CC(=O)Nc1cnc2ccccc2c1` [No. 3, ethyl 3-oxo-3-(quinolin-3-ylamino)propanoate] the “AIMP2-DX2 Activity in A549 cells” value (AIMP2-DX2 [1]) was 17967 and the “AIMP2-DX2 Activity in H460 cells” value (AIMP2-DX2 [2]) was 5447.
For `CCOC(=O)C(C)C(=O)Nc1cnc2ccccc2c1` (stereo not shown) [No. 6, ethyl 2-methyl-3-oxo-3-(quinolin-3-ylamino)propanoate], the “AIMP2-DX2 Activity in A549 cells” value (AIMP2-DX2 [1]) was 6011 and the “AIMP2-DX2 Activity in H460 cells” value (AIMP2-DX2 [2]) was 5083.

From patent US9206132B2, “Use of a novel aminopyridine derivative to prevent or treat cancer” (Medicinal Bioconvergence Research Center, priority 2012, dated 2015)
